From US20230364091A1, “COMPOSITIONS AND METHODS FOR TREATING CANCER” (The Regents of the University of California, priority 2020, published 2023)

Experiments:
[1] = system: PC-9 cells (EGFR exon 19 deletion); experiment: Cellular IC50, Cell Titer Glo viability, PC-9; format: cell-based; conditions: Homo sapiens, 72 hours
Experimental: (§1) PC-9 cells were purchased from Sigma, and HCC827 cells were purchased from ATCC. Each cell line was maintained at ≤passage 10 at 37° C. in a humidified incubator with 5% CO2. Cells were plated in 96-well optical bottom plates (Corning #3903; Corning, NY) at a cell density of 5,000 cells/well, allowed to adhere for minimally 16 hours, and subsequently treated with the test compounds using an 11-point serial dilution (1:3) in duplicate using an HP D300 digital 4 dispenser (Tecan, Morrisville, NC). 72 hours after addition of the test compounds, Cell Titer Glo reagent (Promega, Madison, WI) was added to the plate according to manufacturer's protocol and luminescence measured using a Spectramax M5 (Molecular Devices, San Jose, CA). IC50s were calculated using the 4-parameter variable slope curve fit using the equation below where, Y and X are variables plotted, Top and Bottom are plateaus in the units of the Y axis, Log IC50 is the Log transformation of the IC50 value and HillSlope is the Hill Slope for the curve and describes curve steepness (GraphPad Prism, version 6.07, GraphPad Software, Inc.). Y=Bottom+(Top−Bottom)/(1+10((Log IC50−X)*HillSlope)))

[2] = system: HCC827 cells (EGFR exon 19 deletion); experiment: Cellular IC50, Cell Titer Glo viability, HCC827; format: cell-based; conditions: Homo sapiens, 72 hours
Experimental: as §1

[3] = Brain penetration in non-tumor bearing mice; format: in vivo; conditions: mouse, brain and plasma, unbound ratio of drug in brain to plasma
Description: Disclosed in table 5 Brain to plasma percentages and unbound ratios of drugs in brain to plasma of indicated drugs in non-tumor bearing mice

IC50 [1] [µM] | IC50 [2] [µM] | Kp uu [3] | Compound
0.0217 | 0.0127 |  | Fc1c(Br)cccc1Nc1ncnc2cc3c(cc12)O[C@@H](CN1CCOCC1)CO3 [JCN063S, (S)—N-(3-bromo-2-fluorophenyl)-7-(morpholinomethyl)-7,8-dihydro-[1,4]dioxino[2,3-g]quinazolin-4-amine]
0.0539 | 0.0495 |  | Fc1c(Br)cccc1Nc1ncnc2cc3c(cc12)O[C@@H](CN1CCCCC1)CO3 [JCN065S, (S)—N-(3-bromo-2-fluorophenyl)-7-(piperidin-1-ylmethyl)-7,8-dihydro-[1,4]dioxino[2,3-g]quinazolin-4-amine]
 |  | 0.341 | Fc1c(Br)cccc1Nc1ncnc2cc3c(cc12)OC(CN1CCOCC1)CO3 (racemic) [JGK063, (±)-N-(3-Bromo-2-fluorophenyl)-7-[(morpholin-4-yl)methyl]-7,8-dihydro[1,4]dioxino[2,3-g]quinazolin-4-amine]
 |  | 1.18 | CN(C)CC1COc2cc3ncnc(Nc4cccc(Br)c4F)c3cc2O1 (racemic) [JGK066, (±)-N-(3-Bromo-2-fluorophenyl)-7-[(dimethylamino)methyl]-7,8-dihydro[1,4]dioxino[2,3-g]quinazolin-4-amine]
 |  | 1.18 | CN1CCN(C[C@H]2COc3cc4ncnc(Nc5cccc(Br)c5F)c4cc3O2)CC1 [JGK068S, (7S)—N-(3-Bromo-2-fluorophenyl)-7-[(4-methylpiperazin-1-yl)methyl]-7,8-dihydro[1,4]dioxino [2,3-g]quinazolin-4-amine]
 |  | 0.798 | Fc1c(Br)cccc1Nc1ncnc2cc3c(cc12)O[C@@H](CN1CCNCC1)CO3 [JGK083S, (7S)—N-(3-Bromo-2-fluorophenyl)-7-[(piperazin-1-yl)methyl]-7,8-dihydro[1,4]dioxino [2,3-g]quinazolin-4-amine]
 |  | 1.18 | CN1CCN(CC2COc3cc4ncnc(Nc5cccc(Br)c5F)c4cc3O2)CC1 (racemic) [JGK068, (±)-N-(3-Bromo-2-fluorophenyl)-7-[(4-methylpiperazin-1-yl)methyl]-7,8-dihydro[1,4]dioxino[2,3-g]quinazolin-4-amine]
0.0362 | 0.0257 |  | Fc1c(Br)cccc1Nc1ncnc2cc3c(cc12)O[C@@H](CN1CCCC1)CO3 [JCN067S, (S)—N-(3-bromo-2-fluorophenyl)-7-(pyrrolidin-1-ylmethyl)-7,8-dihydro-[1,4]dioxino[2,3-g]quinazolin-4-amine]
